The values that follow come from PMC3895464 (Bioorganic & medicinal chemistry, 2013).

The test system of data set [1] is COX-2 and 5-LOX expression in HT29 cells. The data set can be described thus: COX-2 and 5-LOX expression in HT29 cells. In kind it is cell-based, human. The note with it: Figure 2B.
Data set [2] concerns HT29, HCA-7 and Apc10.1 cells. The data set can be described thus: Cell growth assays, IC50 ranges over the three cell lines. The data set is classed as cell-based. The note with it: read-out: IC50 values (tumor cell survival).
The test system of data set [3] is pre-neoplastic Apc10.1 cells. The data set can be described thus: MTT assay on pre-neoplastic Apc10.1 cells. The data set is classed as cell-based. The note with it: Apc10.1, 24 h. In general terms: Tetrazolium dyes change colour on reduction, which living cells bring about.
Data set [4] relates to HCA-7 cells. The data set can be described thus: Cell proliferation assay. In kind it is cell-based. The note with it: Homo sapiens, HCA-7, read-out: IC50 cell proliferation, HCA-7, Has2 −.
In data set [5] the test system is Apc10.1 cells. The experiment in a line: Cell proliferation assay. In kind it is cell-based, mice. The note with it: Mus musculus, read-out: IC50 cell proliferation, Apc10.1, Has2 −.
In data set [6] the test system is HT29 cells. The data set can be described thus: Cell proliferation assay. The data set is classed as cell-based. The note with it: Homo sapiens, HT-29, read-out: IC50 cell proliferation, HT29, Has2 −.

Regarding `CC(C)(C)C1=CC(=NNC(=O)c2ccccc2)C=C(C(C)(C)C)C1=O` [BQBH, N’- (3,5-di-tert-butyl-4-oxocyclohexa-2,5-dienylidene) benzohydrazide], the “COX-2 and 5-LOX levels” value in data set [1] is “substantial inhibition”. Besides, the IC50 in data set [2] lay within 12 to 20 µM.
On to `CC(C)(C)C1=CC(=NNC(=O)c2ccncc2)C=C(C(C)(C)C)C1=O` [BQIH, N’- (3,5-di-tert-butyl-4-oxocyclohexa-2,5-dienylidene) isonicotinohydrazide], for which the “COX-2 and 5-LOX levels” value in data set [1] is recorded as “substantial inhibition”. The IC50 in data set [2] lay in the range of 12 to 20 µM.
In the case of `CC(C)(C)C1=CC(=NNC(=O)c2cccnc2)C=C(C(C)(C)C)C1=O` [BQNH, N’- (3,5-di-tert-butyl-4-oxocyclohexa-2,5-dienylidene) nicotinohydrazide], the “COX-2 and 5-LOX levels” value in data set [1] is “substantial inhibition”. Further, the IC50 in data set [2] fell in the range of 6.5 to 11 µM. The “cytotoxic activity (MTT)” value in data set [3] was “reasonable cytotoxic activity”.
For the compound `Cc1ccc(-c2cc(C(F)(F)F)nn2-c2ccc(S(N)(=O)=O)cc2)cc1` [Celecoxib, reference compound], in data set [2], the IC50 lay in the range of 2 to 4.2 µM.
Consider `CC1(C)Cc2c(-c3ccccc3)c(-c3ccc(Cl)cc3)c(CC(=O)O)n2C1` [Licofelone, [6-(4-chlorophenyl)-2,2-dimethyl-7-phenyl-2,3-dihydro-1H-pyrrolizin-5-yl]acetic acid], for which the IC50 was 48 ± 5.2 µM in data set [4], 45 to 75 µM in data set [2], 45 ± 7.2 µM in data set [5] and 75 ± 8.3 µM in data set [6]. In addition, the “COX-2 and 5-LOX levels” value in data set [1] is given as “substantial inhibition”.
